Measured values as given in BindingDB's records for patent US11787810 (Merck Sharp & Dohme, 2023).

Molecular target: T1, Diacylglycerol O-acyltransferase 2 (Homo sapiens, UniProt Q96PD7)
T1 sequence (Q96PD7 whole entry): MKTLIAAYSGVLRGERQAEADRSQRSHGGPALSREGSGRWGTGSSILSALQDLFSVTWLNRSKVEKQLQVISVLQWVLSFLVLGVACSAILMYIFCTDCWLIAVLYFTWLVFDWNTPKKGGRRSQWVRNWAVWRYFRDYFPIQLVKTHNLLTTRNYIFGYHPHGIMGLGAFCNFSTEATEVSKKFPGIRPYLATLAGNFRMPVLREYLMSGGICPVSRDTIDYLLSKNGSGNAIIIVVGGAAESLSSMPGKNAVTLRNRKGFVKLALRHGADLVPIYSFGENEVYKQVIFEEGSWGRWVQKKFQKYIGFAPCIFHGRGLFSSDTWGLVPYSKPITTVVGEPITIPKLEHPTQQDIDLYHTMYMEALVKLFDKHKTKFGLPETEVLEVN
Test: DGAT2 Enzymatic Activity Assay
Procedure: DGAT2 activity was determined by measuring the amount of enzymatic product 13C18-triolein (13C-1,2,3-Tri(cis-9-octadecenoyl)glycerol) using the membrane prep mentioned above. The assay was carried out in ABgene 384-well assay plates in a final volume of 25 μL at rt. The assay mixture contained the following: assay buffer (100 mM Tris Cl, pH 7.0, 20 mM MgCl2, 5% ethanol), 25 μM of diolein, 5 μM of 13C oleoyl-CoA and 8 ng/μL of DGAT2 membrane.

IC50	SMILES
4.3 nM	CC(C)n1nc(-c2cccc(OC(F)F)c2)c2ncc(C(=O)NC3(C)CCS(=O)(=O)CC3)cc21 [US11787810, Example 32]
142 nM	CC(C)n1nc(-c2cccc(OCC#N)c2)c2ncc(C(=O)NC3(C)CS(=O)(=O)C3)cc21 [US11787810, Example 103]
7940 nM	CC(=O)N1CC(n2nc(-c3cccc(OC(F)F)c3)c3ncc(C(=O)NC4(C)CS(=O)(=O)C4)cc32)C1 [US11787810, Example 135]
